Data: EP0188781A1, “1-Oxa-1-dethia-cephalosporin compounds and antibacterial agent comprising the same” (Merck & Co., Inc., priority 1984, dated 1986)

What was measured:
[1] = test system: Streptococcus faecalis ATCC8043; assay: Minimum inhibitory concentration (MIC) in vitro, antibacterial spectrum; type: cell-based
Escherichia coli GN206 = assay: as above; type: cell-based
[2] = test system: Streptococcus faecalis W-73; assay: as above; type: cell-based
Streptococcus faecalis = assay: Antibacterial activity in vitro, summary in words; type: cell-based; settings: statement in words on Table 1
[3] = test system: Pseudomonas aeruginosa MB3833; assay: Minimum inhibitory concentration (MIC) in vitro, antibacterial spectrum; type: cell-based
[4] = test system: Serratia marcescens No. 2; assay: as above; type: cell-based
[5] = test system: Pseudomonas aeruginosa MB3829; assay: as above; type: cell-based
[6] = test system: Streptococcus faecalis W-75; assay: as above; type: cell-based
[7] = test system: Streptococcus faecalis W-74; assay: as above; type: cell-based
[8] = test system: Salmonella typhimurium LT-2; assay: as above; type: cell-based
Proteus mirabilis GN79 = assay: as above; type: cell-based
Proteus rettgeri GN624 = assay: as above; type: cell-based
[9] = test system: Escherichia coli NIHJ JC-2; assay: as above; type: cell-based
[10] = test system: Staphylococcus aureus 209 P JC-1; assay: as above; type: cell-based
[11] = test system: Pseudomonas aeruginosa E-2; assay: as above; type: cell-based
Proteus vulgaris GN76 = assay: as above; type: cell-based
[12] = test system: Staphylococcus aureus Smith; assay: as above; type: cell-based
Pseudomonas aeruginosa = assay: Antibacterial activity in vitro, summary in words; type: cell-based; settings: statement in words on Table 1
From the text: Besides, the compounds of Examples 1, 2, 4, 5 and 7 advantageously are also effective against Pseudomonas aeruginosa.

[13] = Concentration in serum after subcutaneous administration to mice, bioassay with Escherichia coli; type: in vivo; settings: mouse, sc, 25 mg/kg subcutaneously
From the text: For the serum which was separated from the blood samples, the concentration in the serum of the compound administered was bioassayed using Escherichia coli as assay microorganism.

| Structure (SMILES) | Minimum inhibitory concentration (MIC) [1] | Minimum inhibitory concentration (MIC) (Escherichia coli GN206) | Minimum inhibitory concentration (MIC) [2] | Minimum inhibitory concentration (MIC) [3] | Minimum inhibitory concentration (MIC) [4] | Minimum inhibitory concentration (MIC) [5] | Minimum inhibitory concentration (MIC) [6] | Minimum inhibitory concentration (MIC) [7] | Minimum inhibitory concentration (MIC) [8] | Minimum inhibitory concentration (MIC) (Proteus mirabilis GN79) | Minimum inhibitory concentration (MIC) (Proteus rettgeri GN624) | Minimum inhibitory concentration (MIC) [9] | Minimum inhibitory concentration (MIC) [10] | Minimum inhibitory concentration (MIC) [11] | Minimum inhibitory concentration (MIC) (Proteus vulgaris GN76) | Minimum inhibitory concentration (MIC) [12] | effective against Pseudomonas aeruginosa (Pseudomonas aeruginosa) | also measured |
| --- | --- | --- | --- | --- | --- | --- | --- | --- | --- | --- | --- | --- | --- | --- | --- | --- | --- | --- |
| C[C@@H]1O[C@@H]2[C@H](NC(=O)C(NC=O)c3csc(N)n3)C(=O)N2C(C(=O)O)=C1CSc1nc(=O)c(O)nn1C (stereo partly drawn) [Compound No. 6, (6R,7R)-7-[2-(2-aminothiazol-4-yl)-2-(form-amido)acetamido]-(2S)-2-methyl-3-(2,5-dihydro-6-hydroxy-2-methyl-5-oxo-1,2,4-triazin-3-yl) thiomethyl-l-oxa-l-dethia-ceph-3-em-4-carboxylic acid] | 12.5 | 1.56 | 100 | 100 | 0.20 | 50 | 6.24 | 50 | 0.025 | 0.10 | 0.10 | 0.10 | 0.78 | 100 | 50 | 1.56 | – | effective against Streptococcus faecalis (Streptococcus faecalis): effective |
| CO/N=C(\C(=O)N[C@@H]1C(=O)N2C(C(=O)O)=C(CSc3nc(=O)c(=O)[nH]n3C)CS[C@H]12)c1csc(N)n1 [Ceftriaxone, reference compound] | 3.13 | 0.78 | 100 | 50 | 0.10 | 12.5 | 1.56 | 100 | 0.05 | 0.025 | 0.39 | 0.10 | 1.56 | 100 | 0.025 | 3.13 | – | – |
| CCO/N=C(\C(=O)N[C@@H]1C(=O)N2C(C(=O)O)=C(CSc3nc(=O)c(O)nn3C)[C@H](C)O[C@H]12)c1csc(N)n1 [Compound No. 2, (6R,7R)-7-[(z)-2-(2-aminothiazol-4-yl)-2-(ethoxyimino)acetamido]-(2S)-2-methyl-3-(2,5-dihydro-6-hydroxy-2-methyl-5-oxo-1,2,4-triazin-3-yl)thiomethyl-l-oxa-l-dethia-ceph-3-em-4-carboxylic acid] | 1.56 | 0.78 | 50 | 12.5 | 0.39 | 6.25 | 0.20 | 6.25 | 0.39 | 0.20 | 0.78 | 0.39 | 1.56 | 25 | 0.20 | 1.56 | effective | effective against Streptococcus faecalis (Streptococcus faecalis): effective |
| CCO/N=C(\C(=O)N[C@@H]1C(=O)N2C(C(=O)O)=C(CSc3nc(=O)c(O)nn3C)CO[C@H]12)c1csc(N)n1 [Compound No. 4, (6R,7R)-7-[(Z)-2-(2-aminothiazol-4-yl)-2-(ethoxyimino)acetamido]-3-(2,5-dihydro-6-hydroxy-2-methyl-5-oxo-l,2,4-triazin-3-yl) thiomethyl-l-oxa-l-dethia-ceph-3-em-4-carboxylic acid] | 25 | 1.56 | 100 | 6.25 | – | – | 0.20 | – | 0.10 | 0.025 | 0.39 | 0.10 | 0.78 | 25 | 0.05 | 1.56 | effective | – |
| CO[C@@]1(NC(=O)C(C(=O)O)c2ccc(O)cc2)C(=O)N2C(C(=O)O)=C(CSc3nnnn3C)CO[C@@H]21 (some centres unmarked) [Latamoxef, reference compound] | 25 | 0.39 | 100 | 6.25 | 0.10 | 12.5 | 100 | 100 | 0.05 | 0.10 | 0.05 | 0.10 | 3.13 | 6.25 | 0.20 | 3.13 | – | – |
| CO/N=C(\C(=O)N[C@@H]1C(=O)N2C(C(=O)O)=C(CSc3nc(=O)c(O)nn3C)CO[C@H]12)c1csc(N)n1 [Compound No. 3, (6R,7R)-7-[(Z)-2-(2-aminothiazol-4-yl)-2-(methoxyimino)acetamido]-3-(2,5-dihydro-6-hydroxy-2-methyl-5-oxo-1,2,4-triazin-3-yl) thiomethyl-l-oxa-l-dethia-ceph-3-em-4-carboxylic acid] | 12.5 | 3.13 | 50 | 25 | 0.39 | 12.5 | 0.39 | 50 | 0.05 | 0.05 | 0.39 | 0.10 | 0.78 | 50 | 0.10 | 0.78 | – | – |
| CCN1CCN(C(=O)NC(C(=O)N[C@@H]2C(=O)N3C(C(=O)O)=C(CSc4nc(=O)c(O)nn4C)CO[C@H]23)c2csc(N)n2)C(=O)C1=O (single isomer, unassigned) [Compound No. 7] | 0.78 | 1.56 | 100 | 12.5 | 0.20 | 12.5 | 12.5 | 25 | 0.10 | 50 | 0.39 | 0.10 | 0.78 | 25 | 0.025 | 1.56 | effective | concentration at 0.5 h ([13]; 1/2 hour): 32000 ng/mL; concentration at 0.25 h ([13]; 1/4 hour): 34000 ng/mL; concentration at 5 min ([13]; 1/12 hour): 25000 ng/mL; concentration at 1 h ([13]; 1 hour): 13000 ng/mL |
| Cn1nc(O)c(=O)nc1SCC1=C(C(=O)O)N2C(=O)[C@@H](NC(=O)C(NC=O)c3csc(N)n3)[C@H]2OC1 (stereo partly drawn) [Compound No. 8, (6R,7R)-7-[2-(2-aminothiazol-4-yl)-2-(form-amido)acetamido]-3-(2,5-dihydro-6-hydroxy-2-methyl-5-oxo-1,2,4-triazin-3-yl)thiomethyl-l-oxa-l-dethia-ceph-3-em-4-carboxylic acid] | 25 | 1.56 | 100 | 100 | 0.20 | 100 | 6.24 | 50 | 0.025 | 0.10 | 0.10 | 0.05 | 1.56 | 100 | 100 | 1.56 | – | – |
